Earlier results as cited in publication PMC5601361, “Targeting the Receptor for Advanced Glycation Endproducts (RAGE): A Medicinal Chemistry Perspective” (Journal of Medicinal Chemistry, 2017).
Entries after “also recorded” stand apart in the source; their conditions may differ. Where two headings read alike, the source gives them in different places. Each block holds one molecule with its values, some of them ahead of it.

Tests used:
human RAGE [1] = target: human RAGE; parameters: method as in PMID 22493510, PMID 21347371; conditions: SPR on human RAGE
[2] = tested on: LLC and B16 melanoma cells; parameters: method as in PMID 22493510, PMID 21347371; conditions: single preadministration
[3] = tested on: immune-deficient mice implanted with cancer cells; parameters: method as in PMID 22718861; conditions: ip delivery
[4] = tested on: pancreatic cancer cell lines; parameters: method as in PMID 22718861; conditions: several cancer cell lines
human RAGE-Aβ1–42 = conditions: ELISA on human RAGE-Aβ1–42; for inhibitory activity compared with another compound: at 20 μM
[5] = parameters: method as in PMID 26771209
human brain tissue = tested on: human brain tissue; parameters: method as in PMID 26771209
[6] = parameters: method as in PMID 26771209; remark: listed apart in the source
[7] = parameters: method as in PMID 25533401
Aβ = tested on: Aβ; parameters: method as in PMID 26899576; conditions: 50 μM
[8] = tested on: RAGE-overexpressing SH-SY5Y cells
wild-type mice = tested on: wild-type mice; parameters: method as in PMID 22742537, PMID 24727489; conditions: given prior to human Aβ administration, 3 ip, 7 iv 25 mg/kg
human RAGE [9] = target: human RAGE; parameters: method as in PMID 22742537, PMID 24727489; conditions: SPR
human sRAGE [10] = target: human sRAGE; parameters: method as in PMID 24824951; conditions: V domain; read-out: affinity for RAGE (Kd)
sRAGE [11] = tested on: sRAGE
sRAGE [12] = tested on: sRAGE; remark: listed apart in the source
aortas of aged rats = tested on: aortas of aged rats; parameters: method as in PMID 25160740
[13] = tested on: RAGE-transfected CHO cells
[14] = tested on: Wistar rats treated with AGEs; parameters: method as in PMID 26738988; conditions: ip 1 mg/kg/day for 4 weeks
C6 glioma cells = tested on: C6 glioma cells; parameters: method as in PMID 22742537; conditions: in vitro; 3 at 10 μM
rats = tested on: rats; parameters: method as in PMID 25757085, PMID 20223279
tumor cell = tested on: tumor cell; parameters: method as in PMID 23421467; conditions: in vitro and in vivo
human sRAGE [15] = target: human sRAGE; parameters: method as in PMID 22406537; conditions: V domain, read-out: affinity for RAGE (Kd)
rat and mouse sRAGE = target: rat and mouse sRAGE; parameters: method as in PMID 7592757; conditions: VC1C2
diabetic mice = tested on: diabetic mice; parameters: method as in PMID 18245563, PMID 26807573, PMID 14568011
human RAGE [16] = target: human RAGE; parameters: method as in PMID 25084534; conditions: V domain; Ca2+-bound S100P homodimer; read-out: affinity for RAGE (Kd)
[17] = read-out: IC50, interaction of sRAGE to CML
[18] = read-out: IC50, interaction of sRAGE to S110B
[19] = read-out: IC50, interaction of sRAGE to amyloid β

Kd (human RAGE [1]): 0.2 nM
Molecule: chondroitin sulfate E [Compound 15]
lung colonization by tumor cells [2]: suppressed

Molecule: ELKVLMEKEL [Compound 19, RAGE antagonistic peptide developed from the structure of S100P]
tumor growth, metastasis and inflammation [3]: reduction of tumor growth, metastasis, and inflammation
RAGE activation of NF-κB, inflammation, tumor growth and metastasis [4]: reduced; also recorded: inhibition of NF-κB, inflammation, tumor growth and metastasis

Molecule: CCN(CC)CCOc1ccc(OC)cc1NC(=O)c1nc(-c2ccc(F)cc2)cc(-c2ccc(F)cc2)n1 [Compound 6]
inhibitory activity compared with another compound (human RAGE-Aβ1–42): superior RAGE inhibition than 3

metabolism in rat liver microsomes [5]: rapidly metabolized
time of peak after iv injection [6]: ≤ 3 min
washout over the PET scan [6]: virtually complete washout
Molecule: O=C(c1ccc([18F])cc1)N(Cc1ccccc1)C1CCCCC1 [[^18F]13]
uptake in frontal cortex of AD compared with healthy control tissue (human brain tissue): higher uptake
nonspecific binding in vivo ([6]; iv injection): significant nonspecific binding to the white matter

solubility compared to 3 [7]: improved
Molecule: CN(C)C1CCN(CCOc2cccc(Nc3nc(-c4ccc(Cl)cc4)cc(-c4ccc(Cl)cc4)n3)c2)C1 (stereo not shown) [Compound 5]
inhibitory activity compared with another compound (human RAGE-Aβ1–42): improved RAGE-Aβ1–42 inhibition

Molecule: O=C1CCC[C@@H]2[C@H]3CCCN4CCC[C@@H](CN12)[C@@H]34 [Compound 14, matrine, reference compound]
Aβ aggregation or fibrillation (Aβ): prevents Aβ aggregation or fibrillation
Aβ-induced cytotoxicity [8]: inhibits Aβ-induced cytotoxicity
RAGE-Aβ signaling pathway (NF-κB and BACE1 expression levels) ([8]; 50 μM): decrease of NF-κB and BACE1 expression levels
Aβ1–42, NF-κB, BACE1 and cytokines ([8]; in vitro and in vivo): • reduced Aβ1–42, NF-κB, BACE1 and cytokines (in vitro and in vivo)
brain Aβ, NF-κB, BACE1 levels (APPswe/PS1 mice; ip 100 mg/kg): reduces
proinflammatory cytokines (TNF-α and IL-1β) (APPswe/PS1 mice; ip 100 mg/kg): downregulates
transport across the BBB (APPswe/PS1 mice; ip 100 mg/kg, AD transgenic mice): is transported across the BBB

Kd (human RAGE [9]): 43400 nM
Molecule: CCCCOc1cc(OCCCN(CC)CC)ccc1NC(=O)c1cc(-c2ccc(Oc3ccc(F)cc3)cc2)nn1C [Compound 7]
Aβ brain entry / accumulation in the brain (wild-type mice): reduce Aβ entry in the brain

Kd (human sRAGE [10]): 40 nM
Molecule: CC1NC(NCCC[C@H](N)C(=O)O)=NC1=O (stereo partly shown) [MG-H1, methylglyoxal-derived hydroimidazolone-1]

IC50 (sRAGE [11]; [17]): < 500 nM
IC50 (sRAGE [11]; [18]): < 500 nM
IC50 (sRAGE [11]; [19]): < 500 nM
Molecule: CCCCn1c([C@@H](Cc2ccc(OCCc3ccc(Cl)cc3)cc2)NC(=O)OC(C)(C)C)nc2cc(OCCCN(CC)CC)ccc21 [Compound 11]

binding to immobilized Aβ (sRAGE [12]): did not bind
binding specificity in the CNS (APPsw/0 mice): bound exclusively to RAGE
soluble APP β protein, p65, NF-κB and BACE1 mRNA levels in cortex and hippocampus (APPsw/0 mice; ip 1 mg/kg daily for 2 months): reduced
BBB permeability: acceptable BBB permeability
Molecule: O=C(c1ccc(Cl)cc1)N(Cc1ccccc1)C1CCCCC1 [Compound 12, N-Benzyl-N-cyclohexyl-4-chlorobenzamide]
Aβ1–40, Aβ1–42, S100B, HMGB1 binding to RAGE (sRAGE [12]; in vitro): • inhibited Aβ1–40, Aβ1–42, S100B, HMGB1 binding to RAGE (in vitro)
GSH/GSSG ratio (aortas of aged rats): increased
malondialdehyde and ROS production (aortas of aged rats): reduced
Aβ1–40 and Aβ1–42 levels in brain (cortex, hippocampus) (APPsw/0 mice): reducing their levels in the cortex and the hippocampus; also recorded: • reduced Aβ1–40 and Aβ1–42 levels in brain
RAGE actions at the BBB and in the brain (APPsw/0 mice): • blocked RAGE actions at the BBB and in the brain
RAGE-mediated influx of circulating Aβ1–40 and Aβ1–42 into the brain (APPsw/0 mice): inhibited; also recorded: • inhibition of Aβ influx in the brain (in vivo)
neuronal oxidative stress, microglia activation, neuroinflammation (APPsw/0 mice): reduced Aβ-induced RAGE-dependent oxidative stress in neurons, suppressed microglia activation, and neuroinflammation
cognitive performance and cerebral blood flow (APPsw/0 mice; aged APPsw/0 mice): • normalized cognitive performance and cerebral blood flow in aged APPsw/0 mice
dose not toxic (APPsw/0 mice; ip, 15–17-month-old APPsw/0 mice): up to 500 mg/kg
toxicity in RAGE-transfected CHO cells ([13]; 10 μM): nontoxic
cytotoxicity / toxicology profile in vitro and in vivo ([13]; cell culture and rodents): good toxicology profile; also recorded: • low cytotoxicity in vitro and in vivo
Aβ1–40-induced NF-κB activation, BACE1 expression, cytokines ([13]; in vitro and in vivo): • reduced Aβ1–40-induced NF-κB activation, BACE1 expression, cytokines (in vitro and in vivo)
RAGE-mediated cellular oxidative stress, BACE1 mRNA, BACE1 activity, nuclear NF-κB levels ([13]; induced by Aβ1–40 and Aβ1–42): reduced
Aβ expression and APP production, NF-κB-mediated Aβ production, inflammatory response, ROS and lipid peroxidation [14]: reduction
antioxidant enzyme activity [14]: increased

Molecule: CCN(CC)CCOc1cccc(Nc2nc(-c3ccc(Cl)cc3)cc(-c3ccc(Cl)cc3)n2)c1 [Compound 3]
Aβ-induced NF-κB signaling (C6 glioma cells): down-regulation; also recorded: • downregulation of Aβ-induced NF-κB (in vitro)
IC50 (human RAGE-Aβ1–42): 16500 nM
Aβ brain entry / accumulation in the brain (wild-type mice; 25 mg/kg): inhibited Aβ brain entry; also recorded: • inhibition of Aβ accumulation in the brain (in vivo)
concentration of toxic soluble Aβ in the brain (APPswe/PS1 mice; oral 50 mg/kg per day for up to three months): significantly lowered
Kd (human RAGE [9]): 102000 nM

Molecule: O=C(O)c1cccnc1C(=O)O [quinolinic acid]
neuronal death in the striatum (rats): dose-dependent neuronal death in the striatum

Kd (human sRAGE [10]): 30 to 40 nM
Molecule: methylglyoxal-derived hydroimidazolones [MG-H]

Kd (human RAGE [1]): 3.1 nM
Molecule: heparin [Compound 17]
tumor cell growth, migration, invasion and distant metastasis (tumor cell): inhibited tumor cell growth, migration, invasion, and distant metastasis

IC50 (human RAGE-Aβ1–42): 4600 nM
Molecule: CCN(CC)CCOc1ccccc1Nc1nc(-c2ccc(Cl)cc2)cc(-c2ccc(Cl)cc2)n1 [Compound 4]
Aβ-induced NF-κB signaling (C6 glioma cells): • downregulation of Aβ-induced NF-κB (in vitro)
Aβ brain entry / accumulation in the brain (wild-type mice): • inhibition of Aβ accumulation in the brain (in vivo)

Kd (human RAGE [1]): 0.6 nM
Molecule: heparan sulfate [Compound 16]
lung colonization by tumor cells [2]: suppressed

IC50 (sRAGE [11]; [17]): < 500 nM
IC50 (sRAGE [11]; [18]): < 500 nM
IC50 (sRAGE [11]; [19]): < 500 nM
Molecule: CCCCOc1cc(OCCCN(CC)CC)ccc1NC(=O)C(CC1CCN(Cc2ccccc2)CC1)NC(=O)OCC1c2ccccc2-c2ccccc21 (stereo not shown) [Compound 10]

Kd (human sRAGE [15]; listed as 125I-labeled Aβ1–40): 75 nM
Kd (human sRAGE [15]): 70 to 80 nM
Molecule: β amyloid: β amyloid peptide, RAGE ligand

affinity for RAGE (Kd) (rat and mouse sRAGE): low nanomolar range
Kd (rat and mouse sRAGE; read-out: affinity for RAGE (Kd)): 6 to 10 nM
Molecule: HMGB1 (amphoterin): high mobility group box 1, cytokine-type RAGE ligand

Molecule: C[C@H](CCC(=O)O)[C@H]1CC[C@H]2[C@@H]3[C@@H](O)C[C@@H]4C[C@H](O)CC[C@]4(C)[C@H]3CC[C@]12C [ursodeoxycholic acid]
antiatherogenic activity (diabetic mice): antiatherogenic activity

Kd (human RAGE [16]): 6000 nM
B1: S100P: S100 family protein binding the RAGE V domain (protein, UniProt P25815 1-95, looked up)
Protein S100-P: MTELETAMGMIIDVFSRYSGSEGSTQTLTKGELKVLMEKELPGFLQSGKDKDAVDKLLKDLDANGDAQVDFSEFIVFVAAITSACHKYFEKAGLK
